Test results published in PubChem BioAssay AID330 (DTP/NCI, 2004).
Several values for one entry are separate records, joined by “and”; a condition that tells them apart may be missing. Identical values can stand only once. Inconclusive results and toxic doses are left out.

Tested on: P388 leukemia ip, CD2F1 mice, survival T/C
Test: NCI In Vivo Anticancer Drug Screen. Data for tumor model P388 Leukemia (intraperitoneal) in CD2F1 (CDF1) mice
Conditions: endpoint: median survival time, higher = longer survival
Outline: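 Mice carrying the transplanted tumor received test compound or vehicle. Survival was recorded in each group, and the value is the treated-group measurement divided by that of the vehicle-treated control group.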

[1] = dose: 60.0 mg/kg/injection, schedule: Q01DX005 (ip), vehicle: saline with Tween-80
[2] = dose: 120.0 mg/kg/injection, schedule: Q01DX005 (ip), vehicle: saline with Tween-80
[3] = dose: 240.0 mg/kg/injection, schedule: Q01DX005 (ip), vehicle: saline with Tween-80
[4] = dose: 50.0 mg/kg/injection, schedule: Q01DX001 (ip), vehicle: Klucel (hydroxypropylcellulose) (HPC)
[5] = dose: 100.0 mg/kg/injection, schedule: Q01DX001 (ip), vehicle: Klucel (hydroxypropylcellulose) (HPC)
[6] = dose: 200.0 mg/kg/injection, schedule: Q01DX001 (ip), vehicle: Klucel (hydroxypropylcellulose) (HPC)
[7] = dose: 50.0 mg/kg/injection, schedule: Q01DX009 (ip), vehicle: saline
[8] = dose: 100.0 mg/kg/injection, schedule: Q01DX009 (ip), vehicle: saline
[9] = dose: 200.0 mg/kg/injection, schedule: Q01DX009 (ip), vehicle: saline
[10] = dose: 50.0 mg/kg/injection, schedule: Q01DX005 (ip), vehicle: saline with Tween-80
[11] = dose: 100.0 mg/kg/injection, schedule: Q01DX005 (ip), vehicle: saline with Tween-80
[12] = dose: 200.0 mg/kg/injection, schedule: Q01DX005 (ip), vehicle: saline with Tween-80
[13] = dose: 12.5 mg/kg/injection, schedule: Q01DX005 (ip), vehicle: saline with Tween-80
[14] = dose: 25.0 mg/kg/injection, schedule: Q01DX005 (ip), vehicle: saline with Tween-80
[15] = dose: 50.0 mg/kg/injection, schedule: Q01DX009 (ip), vehicle: saline with Tween-80
[16] = dose: 100.0 mg/kg/injection, schedule: Q01DX009 (ip), vehicle: saline with Tween-80
[17] = dose: 200.0 mg/kg/injection, schedule: Q01DX009 (ip), vehicle: saline with Tween-80
[18] = dose: 50.0 mg/kg/injection, schedule: Q01DX009 (ip), vehicle: Klucel (hydroxypropylcellulose) (HPC)
[19] = dose: 100.0 mg/kg/injection, schedule: Q01DX009 (ip), vehicle: Klucel (hydroxypropylcellulose) (HPC)
[20] = dose: 200.0 mg/kg/injection, schedule: Q01DX009 (ip), vehicle: Klucel (hydroxypropylcellulose) (HPC)

SMILES: CCOc1ccc(C(C)c2cc3c(cc2O)OCO3)cc1 (stereo not given)
- T/C [1]: 105 % of control
- T/C [2]: 104 % of control
- T/C [3]: 109 % of control

SMILES: CC1=C(Sc2ccc(Br)cc2)C(N)Nc2nc(N)nc(N)c21 (stereo not given)
- T/C [1]: 89 % of control
- T/C [2]: 89 % of control

SMILES: CCC(CC)C1NC(C(CC)CC)N2C(C(CC)CC)N12 (stereo not given)
- T/C [4]: 103 % of control
- T/C [5]: 104 % of control
- T/C [6]: 101 % of control

SMILES: O=C1OC(=O)C2C3C=CC(C4C=C(c5ccccc5)C43)C12 (stereo not given)
- T/C [7]: 106 % of control
- T/C [8]: 92 % of control
- T/C [9]: 107 % of control

SMILES: COc1cccc2c1C(=O)c1c(O)c3c(c(O)c1C2=O)C[C@@](O)(C(=O)COS(=O)(=O)c1ccc(C)cc1)C[C@@H]3OC1CC(N)C(O)C(C)O1 (stereo not given in full)
- T/C (dose: 0.78 mg/kg/injection, schedule: Q01DX009 (ip), vehicle: water): 164 % of control
- T/C (dose: 1.56 mg/kg/injection, schedule: Q01DX009 (ip), vehicle: water): 161 % of control
- T/C (dose: 3.13 mg/kg/injection, schedule: Q01DX009 (ip), vehicle: water): 158 % of control and 161 % of control
- T/C (dose: 6.25 mg/kg/injection, schedule: Q01DX009 (ip), vehicle: water): 155 % of control and 180 % of control
- T/C (dose: 12.5 mg/kg/injection, schedule: Q01DX009 (ip), vehicle: water): 89 % of control

SMILES: CCOC(=Nc1ccc(OCC)cc1)SC(c1ccccc1)(c1ccccc1)c1ccccc1
- T/C [10]: 104 % of control
- T/C [11]: 98 % of control
- T/C [12]: 91 % of control

SMILES: N#Cc1c(Cl)c(Cc2ccccc2)c(Cl)n2c1nc1ccccc12
- T/C [1]: 100 % of control
- T/C [2]: 108 % of control
- T/C [3]: 99 % of control

SMILES: CC(C)(O)C1CCCCC1Cl (stereo not given)
- T/C [10]: 104 % of control
- T/C [11]: 107 % of control
- T/C [12]: 104 % of control

SMILES: COc1cc(C[C@H](CO)[C@H](CO)Cc2ccc3c(c2)OCO3)cc(OC)c1OC
- T/C (dose: 12.5 mg/kg/injection, schedule: Q04DX002 (ip), vehicle: acetone): 100 % of control
- T/C (dose: 25.0 mg/kg/injection, schedule: Q04DX002 (ip), vehicle: acetone): 102 % of control
- T/C (dose: 50.0 mg/kg/injection, schedule: Q04DX002 (ip), vehicle: acetone): 103 % of control

SMILES: Cc1ccc(NC(=S)C#N)cc1Cl
- T/C (dose: 6.25 mg/kg/injection, schedule: Q01DX005 (ip), vehicle: saline with Tween-80): 90 % of control
- T/C [13]: 92 % of control
- T/C [14]: 90 % of control

SMILES: Cc1cc(C)c(OC(=O)NCCCl)c(C)c1
- T/C (dose: 50.0 mg/kg/injection, schedule: Q01DX005 (ip), vehicle: Klucel (hydroxypropylcellulose) (HPC)): 97 % of control
- T/C (dose: 100.0 mg/kg/injection, schedule: Q01DX005 (ip), vehicle: Klucel (hydroxypropylcellulose) (HPC)): 97 % of control
- T/C (dose: 200.0 mg/kg/injection, schedule: Q01DX005 (ip), vehicle: Klucel (hydroxypropylcellulose) (HPC)): 96 % of control

SMILES: CCN(CC)CCCNC(c1ccc(OC)c(OC)c1)C(Cl)(Cl)Cl (stereo not given)
- T/C (dose: 60.0 mg/kg/injection, schedule: Q01DX005 (ip), vehicle: saline): 94 % of control
- T/C (dose: 120.0 mg/kg/injection, schedule: Q01DX005 (ip), vehicle: saline): 101 % of control

SMILES: CC1(C)CC(OP(=[Se])(OC2CC(C)(C)N(O)C(C)(C)C2)N2CC2)CC(C)(C)N1O
- T/C (dose: 12.5 mg/kg/injection, schedule: Q01DX001 (ip), vehicle: Klucel (hydroxypropylcellulose) (HPC)): 102 % of control
- T/C (dose: 25.0 mg/kg/injection, schedule: Q01DX001 (ip), vehicle: Klucel (hydroxypropylcellulose) (HPC)): 105 % of control
- T/C [4]: 106 % of control

SMILES: COc1cc2c(cc1OCc1ccccc1)C(Cc1cc(Br)sc1Br)N(C(C)=O)CC2 (stereo not given)
- T/C (dose: 63.0 mg/kg/injection, schedule: Q01DX001 (ip), vehicle: Klucel (hydroxypropylcellulose) (HPC)): 97 % of control
- T/C (dose: 126.0 mg/kg/injection, schedule: Q01DX001 (ip), vehicle: Klucel (hydroxypropylcellulose) (HPC)): 101 % of control
- T/C (dose: 252.0 mg/kg/injection, schedule: Q01DX001 (ip), vehicle: Klucel (hydroxypropylcellulose) (HPC)): 109 % of control

SMILES: CCCCCCCCCCCCCCCCCCCCCC(=O)OC
- T/C [15]: 100 % of control
- T/C [16]: 100 % of control
- T/C (dose: 100.0 mg/kg/injection, schedule: Q04DX003 (ip), vehicle: saline with Tween-80): 91 % of control
- T/C [17]: 100 % of control
- T/C (dose: 200.0 mg/kg/injection, schedule: Q04DX003 (ip), vehicle: saline with Tween-80): 87 % of control

SMILES: CCOC(=O)NN(C(=O)OCC)C(C(C)=O)c1ccccc1 (stereo not given)
- T/C (dose: 60.0 mg/kg/injection, schedule: Q01DX005 (ip), vehicle: Klucel (hydroxypropylcellulose) (HPC)): 105 % of control
- T/C (dose: 120.0 mg/kg/injection, schedule: Q01DX005 (ip), vehicle: Klucel (hydroxypropylcellulose) (HPC)): 103 % of control
- T/C (dose: 240.0 mg/kg/injection, schedule: Q01DX005 (ip), vehicle: Klucel (hydroxypropylcellulose) (HPC)): 103 % of control

SMILES: c1ccc(CN2CCC3(CC2)CO3)cc1
- T/C [5]: 106 % of control
- T/C [6]: 100 % of control

SMILES: CC(SC(SC(C)C(=O)O)c1ccccc1)C(=O)O (stereo not given)
- T/C (dose: 100.0 mg/kg/injection, schedule: Q01DX001 (ip), vehicle: other): 105 % of control
- T/C (dose: 200.0 mg/kg/injection, schedule: Q01DX001 (ip), vehicle: other): 107 % of control
- T/C (dose: 400.0 mg/kg/injection, schedule: Q01DX001 (ip), vehicle: other): 98 % of control

SMILES: Oc1ccc(N=Nc2ccc3c4c(cccc24)-c2ccccc2-3)c2cccnc12
- T/C [18]: 99 % of control
- T/C [19]: 102 % of control
- T/C [20]: 114 % of control

SMILES: COc1cc(NCCCCCNC(C)C(C)C)c2ncccc2c1 (stereo not given)
- T/C [13]: 93 % of control
- T/C [14]: 95 % of control
- T/C [10]: 100 % of control and 96 % of control

SMILES: CC(C)OC(=S)NC(=O)c1ccccc1
- T/C [15]: 109 % of control
- T/C [16]: 100 % of control
- T/C [17]: 103 % of control
- T/C (dose: 400.0 mg/kg/injection, schedule: Q01DX009 (ip), vehicle: saline with Tween-80): 108 % of control

SMILES: OCC(O)C(O)CO (stereo not given)
- T/C [10]: 98 % of control
- T/C [11]: 104 % of control
- T/C [12]: 104 % of control

SMILES: O=C(O)CCCC(C(=O)O)N1C(=O)c2ccccc2C1=O (stereo not given)
- T/C [10]: 94 % of control
- T/C [11]: 93 % of control
- T/C [12]: 87 % of control

SMILES: CCOP(O)(=S)OCC.[Tb]
- T/C (dose: 100.0 mg/kg/injection, schedule: Q04DX003 (ip), vehicle: Klucel (hydroxypropylcellulose) (HPC)): 92 % of control
- T/C (dose: 200.0 mg/kg/injection, schedule: Q04DX003 (ip), vehicle: Klucel (hydroxypropylcellulose) (HPC)): 87 % of control
- T/C (dose: 400.0 mg/kg/injection, schedule: Q04DX003 (ip), vehicle: Klucel (hydroxypropylcellulose) (HPC)): 90 % of control

SMILES: COC(=O)C1(c2ccccc2)N=NN=C1N(C)C (stereo not given)
- T/C [10]: 98 % of control
- T/C [11]: 106 % of control
- T/C [12]: 110 % of control

SMILES: C=C1C(=O)O[C@@H]2[C@H]1CC[C@H](C)[C@]1(O)CCC(=O)[C@@]21C
- T/C (dose: 12.5 mg/kg/injection, schedule: Q01DX009 (ip), vehicle: Klucel (hydroxypropylcellulose) (HPC)): 112 % of control
- T/C (dose: 25.0 mg/kg/injection, schedule: Q01DX009 (ip), vehicle: Klucel (hydroxypropylcellulose) (HPC)): 114 % of control
- T/C (dose: 44.0 mg/kg/injection, schedule: Q01DX009 (ip), vehicle: Klucel (hydroxypropylcellulose) (HPC)): 115 % of control
- T/C [18]: 117 % of control
- T/C (dose: 67.0 mg/kg/injection, schedule: Q01DX009 (ip), vehicle: Klucel (hydroxypropylcellulose) (HPC)): 117 % of control
- T/C [19]: 117 % of control
- T/C (dose: 150.0 mg/kg/injection, schedule: Q01DX009 (ip), vehicle: Klucel (hydroxypropylcellulose) (HPC)): 122 % of control

SMILES: Cc1s/c(=N/N=C2\C(=O)C=Cc3ccccc32)n(O)c1C
- T/C [18]: 99 % of control
- T/C [19]: 108 % of control
- T/C [20]: 111 % of control

SMILES: CCOC(=O)CCC(=O)Nc1ccccc1C#N
- T/C [7]: 102 % of control
- T/C [8]: 93 % of control
- T/C [9]: 102 % of control

SMILES: C(COCC1CO1)OCC1CO1 (stereo not given)
- T/C (dose: 12.5 mg/kg/injection, schedule: Q01DX009 (ip), vehicle: saline): 120 % of control
- T/C [7]: 150 % of control

SMILES: ClC1=CCCCC1
- T/C (dose: 25.0 mg/kg/injection, schedule: Q01DX009 (ip), vehicle: saline): 100 % of control
- T/C [7]: 100 % of control
- T/C [8]: 110 % of control
